According to ChEMBL document CHEMBL1201862, “PubChem BioAssay data set” (2004):
Active and inactive are the calls of the source.

How the values were obtained:
[1] = target: T1, Replicative DNA helicase DnaB (Mycobacterium tuberculosis, UniProt P9WMR3); experiment: DnaB intein splicing inhibitors, dose response, biochemical, cell-free fluorescence (AID 449749); assay type: functional
T1 sequence (P9WMR3 whole entry): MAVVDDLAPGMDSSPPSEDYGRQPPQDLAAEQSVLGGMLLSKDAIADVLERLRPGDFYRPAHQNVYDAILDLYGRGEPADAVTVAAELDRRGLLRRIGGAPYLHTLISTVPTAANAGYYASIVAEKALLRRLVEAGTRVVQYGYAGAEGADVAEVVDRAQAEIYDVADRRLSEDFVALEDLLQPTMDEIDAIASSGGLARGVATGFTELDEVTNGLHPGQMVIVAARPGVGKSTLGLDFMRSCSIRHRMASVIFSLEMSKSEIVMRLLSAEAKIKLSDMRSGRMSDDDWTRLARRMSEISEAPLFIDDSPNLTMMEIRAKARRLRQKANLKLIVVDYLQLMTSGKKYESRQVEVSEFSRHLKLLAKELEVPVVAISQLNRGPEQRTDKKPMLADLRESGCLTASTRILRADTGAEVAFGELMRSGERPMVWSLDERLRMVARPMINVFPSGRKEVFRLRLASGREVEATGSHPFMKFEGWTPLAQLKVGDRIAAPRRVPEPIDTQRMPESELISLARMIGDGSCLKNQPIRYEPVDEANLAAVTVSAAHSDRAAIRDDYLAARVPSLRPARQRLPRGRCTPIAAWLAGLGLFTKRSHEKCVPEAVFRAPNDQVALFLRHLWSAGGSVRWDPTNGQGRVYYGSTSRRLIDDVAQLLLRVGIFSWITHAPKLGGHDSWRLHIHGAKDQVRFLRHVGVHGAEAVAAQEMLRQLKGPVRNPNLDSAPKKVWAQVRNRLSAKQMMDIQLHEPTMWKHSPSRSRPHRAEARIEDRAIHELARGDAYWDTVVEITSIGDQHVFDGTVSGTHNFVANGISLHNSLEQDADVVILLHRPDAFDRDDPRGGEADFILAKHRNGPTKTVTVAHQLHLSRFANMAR

[2] = target: T2, Protein RecA (Mycobacterium tuberculosis, UniProt P9WHJ3); experiment: Fluorescence Cell-Free Homogeneous Dose Retest to Identify Inhibitors of RecA-Intein Splicing Activity. [Related pubchem assays (depositor defined):AID2097, AID2223, AID489010, AID492950]; assay type: functional
T2 sequence (P9WHJ3 whole entry): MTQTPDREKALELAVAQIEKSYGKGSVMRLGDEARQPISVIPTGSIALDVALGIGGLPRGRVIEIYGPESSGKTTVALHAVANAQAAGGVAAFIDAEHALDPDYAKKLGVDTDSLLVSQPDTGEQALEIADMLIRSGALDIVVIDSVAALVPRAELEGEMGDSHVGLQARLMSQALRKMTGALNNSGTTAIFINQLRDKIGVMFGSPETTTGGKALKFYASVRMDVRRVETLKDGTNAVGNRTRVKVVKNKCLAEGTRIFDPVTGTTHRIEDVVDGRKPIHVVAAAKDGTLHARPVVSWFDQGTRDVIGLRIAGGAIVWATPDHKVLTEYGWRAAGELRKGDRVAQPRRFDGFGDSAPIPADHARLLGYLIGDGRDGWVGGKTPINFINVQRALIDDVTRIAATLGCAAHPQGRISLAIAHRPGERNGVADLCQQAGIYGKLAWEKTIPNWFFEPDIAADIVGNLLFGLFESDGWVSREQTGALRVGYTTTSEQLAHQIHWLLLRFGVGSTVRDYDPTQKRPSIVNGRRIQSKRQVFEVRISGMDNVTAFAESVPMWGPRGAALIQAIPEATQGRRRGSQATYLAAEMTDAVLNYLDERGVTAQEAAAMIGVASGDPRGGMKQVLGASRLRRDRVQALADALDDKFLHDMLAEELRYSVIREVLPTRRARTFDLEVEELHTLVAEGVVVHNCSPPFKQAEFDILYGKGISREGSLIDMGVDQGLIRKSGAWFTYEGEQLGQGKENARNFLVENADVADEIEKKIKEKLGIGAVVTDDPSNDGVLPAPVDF

[3] = target: Tyrosyl-DNA phosphodiesterase 2 (Homo sapiens, UniProt O95551); experiment: potency against TDP2 phosphodiesterase activity – biochemical, epi absorbance, IC50, dose response (AID 743297)
[4] = target: Paired box protein Pax-8 (Homo sapiens, UniProt Q06710); experiment: PAX8 transcriptional activity inhibition in RMG-I – RMG-I cells, luciferase, cherry-pick, dose response (AID 687027); assay type: functional, cell-based;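 further: luciferase reporter driven by Pax8 target thyroperoxidase promoter measured by SteadyGlo luminescence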
[5] = OVCAR-3 cell viability loss – plate reader, dry powder samples, PAX8 inhibitor project, dose response (AID 743044); assay type: functional, cell-based
[6] = IGROV1 cell killing – plate reader, dry powder samples, PAX8 inhibitor project, dose response (AID 743043); assay type: functional, cell-based; details: IGROV-1
[7] = OVCAR8 cell viability loss – plate reader, dry powder samples, PAX8 project, dose response (AID 743197); assay type: functional, cell-based; details: OVCAR-8
[8] = general cell-killing toxicity readout – plate reader, dry powder samples, cytotoxicity control for PAX8 inhibitor project, dose response (AID 743021); assay type: functional, cell-based
[9] = P. falciparum Dd2 growth inhibitors, dose response, SYBR Green, cherry-picked samples (AID 1159567); assay type: functional, cell-based
[10] = toxicity to human hepatoma HepG2 cells – cell-based, cherry-picked samples, cytotoxicity control, dose response (AID 1159577); assay type: functional

Sequence of Paired box protein Pax-8 (Q06710 whole entry): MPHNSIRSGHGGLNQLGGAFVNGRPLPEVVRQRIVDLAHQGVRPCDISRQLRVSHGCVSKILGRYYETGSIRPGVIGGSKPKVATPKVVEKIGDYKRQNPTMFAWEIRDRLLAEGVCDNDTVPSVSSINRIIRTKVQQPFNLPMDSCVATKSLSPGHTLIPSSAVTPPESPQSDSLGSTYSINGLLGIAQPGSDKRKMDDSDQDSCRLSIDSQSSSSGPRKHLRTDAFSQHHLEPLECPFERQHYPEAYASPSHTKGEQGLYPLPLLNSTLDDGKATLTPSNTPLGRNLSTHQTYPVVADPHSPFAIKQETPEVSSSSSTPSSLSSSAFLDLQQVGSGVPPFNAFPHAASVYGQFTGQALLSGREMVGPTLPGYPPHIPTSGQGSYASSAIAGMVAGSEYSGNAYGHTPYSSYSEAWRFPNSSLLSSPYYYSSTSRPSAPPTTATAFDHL
Sequence of Tyrosyl-DNA phosphodiesterase 2 (O95551 whole entry): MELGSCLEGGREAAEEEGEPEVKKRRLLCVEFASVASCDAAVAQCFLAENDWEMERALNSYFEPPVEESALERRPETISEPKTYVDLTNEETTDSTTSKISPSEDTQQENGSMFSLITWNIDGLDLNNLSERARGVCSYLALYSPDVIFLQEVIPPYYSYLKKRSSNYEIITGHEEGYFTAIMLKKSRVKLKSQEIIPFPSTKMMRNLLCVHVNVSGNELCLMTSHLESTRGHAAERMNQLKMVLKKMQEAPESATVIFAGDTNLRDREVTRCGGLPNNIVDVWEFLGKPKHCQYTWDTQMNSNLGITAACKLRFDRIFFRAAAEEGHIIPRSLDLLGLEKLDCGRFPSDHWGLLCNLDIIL

With `COc1ccc(/C=C2/C(=O)N(c3ccccc3)N=C2C)cc1Br` the AC50 [1] was 2.77 µM (active), the EC50 [2] was 2.3 µM (active) and the IC50 [3] was 102 µM (inactive).
For `COc1ccc(S(=O)(=O)Nc2ccc3c(c2)C(=O)N([C@@H](C)CO)C[C@H](C)[C@@H](CN(C)C(=O)Nc2ccc(C(F)(F)F)cc2)OCCCC[C@@H](C)O3)cc1`, the AC50 [4] was 9.96 µM (active), the AC50 [5] was 20.5 µM (active) and the AC50 [6] was 41.5 µM (active). The AC50 [7] was 29.6 µM (active).
With `O=C1CN(S(=O)(=O)Cc2ccccc2)C[C@@H]2[C@@H](c3ccc(C#Cc4ccc(F)cc4)cc3)[C@@H](CO)N12` the AC50 [4] was 4.64 µM (active), the AC50 [6] was 17.4 µM (active) and the AC50 [8] was 18.5 µM (active). For the same compound, the AC50 [7] was 35.9 µM (active), the AC50 [9] was 5.57 µM (active) and the AC50 [10] was 9.1 µM (active).
